# Reference: PMC12259270, “Sensory neuron–expressed FGF13 controls nociceptive signaling in diabetic neuropathy models” (The Journal of Clinical Investigation, 2025)
# Residues, ends and D or L forms follow the SMILES beside them. *: point of attachment. Cbz = O=C(OCc1ccccc1)*; OtBu = CC(C)(C)O*
# Molecular target: T1, human Nav1.7 (Homo sapiens, UniProt Q15858)
# T1 construct: expressed in transfected cells; host or cells: HEK293 stably expressing human Nav1.7
# Assay: Whole-cell patch-clamp, HEK293 cells stably expressing human Nav1.7 with GFP or FGF13-GFP
# Format: cell-based
# Set-up: Nav1.7 repriming time course, Mean / Figure 4I, Mean versus Time (ms): unit not given here
# Conditions: for use dependency, normalized INa amplitude, Mean: Fig 1I; for long-term inactivation, Mean: Fig 1J; for Nav1.7 repriming time course, Mean: Fig 1K; for Nav1.7 repriming time course, Mean / Time constant of repriming, Mean: PW164; for Time constant of repriming, Mean: Fig 1L
# Method: Whole-cell patch clamp electrophysiology
# HEK293-Nav1.7 cells, HEK293 stably expressing human Nav1.6 (HEK-Nav1.6), HEK293 stably expressing human Nav1.5 (HEK-Nav1.5), human hIPSC-derived sensory neurons (RealDRGTM from Anatomic Incorporated 1020F1-1M) and donor-derived DRG neurons were plated at low density on glass coverslips and processed for whole-cell patch clamp electrophysiology in voltage-clamp and/or current clamp mode. Whole-cell patch electrophysiological experiments were conducted following previously published studies (26). Current densities were obtained by dividing INa amplitude by membrane capacitance. Current –voltage relationships were generated by plotting current density as a function of the […]. Conductance (G Na) was calculated by the […]
# where INa is the current amplitude at voltage Vm, and Erev is the Na+ reversal potential.
# Activation curves were derived by plotting normalized GNa as a function of test potential and fitted using […]
# Where GNa,Max is the maximum conductance, Va is the membrane potential of half-maximal activation, Em is the membrane voltage and k is the slope factor. For steady -state inactivation, normalized current amplitude (INa/INa,Max) at the test potential was plotted as a function of prepulse potential (Vm) and fitted using the […]
# Where Vh is the potential of half-maximal inactivation, E m is the membrane voltage, and k is the slope factor.
# Transient INa inactivation decay was estimated with the standard exponential equation. Inactivation time constant (tau, τ) was fitted with the following equation: […]
# where I(t) is the amplitude of the current at time t and Iss is the steady-state current during a single voltage-step.
# The goodness of fitting was determined by correlation coefficient (R), and the cutoff of R was set at 0.85. To observe effects on long-term inactivation (LTI), a four-step protocol was employed during which cells were subjected to four 0 mV, 20 ms depolarization pulses separated by −90 mV, 40 ms recovery intervals. To control for various cell sizes, the current densities were calculated by dividing INa peak current amplitude/membrane capacitance (Cm). To represent the fraction of channels entering into LTI, the peak INa observed during depolarization cycles 2-4 was normalized to the peak INa observed during depolarization cycle 1 (INa/INa,Cycle 1) and plotted as a function of the depolarization cycle.
# The cumulative (frequency-dependent) use-dependency was determined by applying 20 pulses with a depolarization to −10 mV (50 ms duration) and 50 ms recovery intervals with a train of 20 pulses at 10 Hz from a holding potential at -70 mV. The current pulses were normalized to the first reco rded pulse and the currents at the 2nd to 20th pulses were compared. The same train was used to record use-dependency at various frequencies […]
# The rate of recovery from inactivation was recorded at -80 mV with a standard repriming voltage protocol.
# The cells were prepulsed to -20 mV for 20 ms to inactivate all currents, then driven back to the recovery potential (Vrec) for increasing recovery durations before the test pulse to 0 mV. The maximum pulse rate was 0.5 Hz. The […]
# follows previous publications (16). The time constants were estimated from single exponential decay to time courses measured at recovery potentials ranging from -140 to -60 mV with the protocol as mentioned above.
# Electrophysiological Recordings
# HEK293 cells: Electrophysiological recordings in HEK293 stably expressing Nav1.7 (HEK-Nav1.7), Nav1.5 (HEK-Nav1.5) or Nav1.6 (HEK-Nav1.6) were performed at room temperature using a MultiClamp 700B or an Axopatch 200B amplifier (Molecular Devices) after incubating coverslips for 60 minutes either with 0.1% DMSO or 50 μM PW164 or ZL192 in the extracellular solution. The composition of recording solutions consisted of the […]
# following salts: extracellular (mM): 140 NaCl, 3 KCl, 1 MgCl2, 1 CaCl2, 10 HEPES, 10 glucose, pH 7.3; […]
# intracellular (mM): 130 CH3O3 SCs, 1 EGTA, 10 NaCl, 10 HEPES, pH 7.3. […]
# T1 sequence (Q92913 1-192 partner limits assumed): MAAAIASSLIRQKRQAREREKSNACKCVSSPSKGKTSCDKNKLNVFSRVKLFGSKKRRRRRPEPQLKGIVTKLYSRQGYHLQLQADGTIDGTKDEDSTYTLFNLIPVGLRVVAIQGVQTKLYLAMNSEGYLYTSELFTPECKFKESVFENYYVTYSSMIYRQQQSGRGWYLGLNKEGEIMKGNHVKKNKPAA
# T1 sequence (Q15858 1-1977 isoform Q15858-3): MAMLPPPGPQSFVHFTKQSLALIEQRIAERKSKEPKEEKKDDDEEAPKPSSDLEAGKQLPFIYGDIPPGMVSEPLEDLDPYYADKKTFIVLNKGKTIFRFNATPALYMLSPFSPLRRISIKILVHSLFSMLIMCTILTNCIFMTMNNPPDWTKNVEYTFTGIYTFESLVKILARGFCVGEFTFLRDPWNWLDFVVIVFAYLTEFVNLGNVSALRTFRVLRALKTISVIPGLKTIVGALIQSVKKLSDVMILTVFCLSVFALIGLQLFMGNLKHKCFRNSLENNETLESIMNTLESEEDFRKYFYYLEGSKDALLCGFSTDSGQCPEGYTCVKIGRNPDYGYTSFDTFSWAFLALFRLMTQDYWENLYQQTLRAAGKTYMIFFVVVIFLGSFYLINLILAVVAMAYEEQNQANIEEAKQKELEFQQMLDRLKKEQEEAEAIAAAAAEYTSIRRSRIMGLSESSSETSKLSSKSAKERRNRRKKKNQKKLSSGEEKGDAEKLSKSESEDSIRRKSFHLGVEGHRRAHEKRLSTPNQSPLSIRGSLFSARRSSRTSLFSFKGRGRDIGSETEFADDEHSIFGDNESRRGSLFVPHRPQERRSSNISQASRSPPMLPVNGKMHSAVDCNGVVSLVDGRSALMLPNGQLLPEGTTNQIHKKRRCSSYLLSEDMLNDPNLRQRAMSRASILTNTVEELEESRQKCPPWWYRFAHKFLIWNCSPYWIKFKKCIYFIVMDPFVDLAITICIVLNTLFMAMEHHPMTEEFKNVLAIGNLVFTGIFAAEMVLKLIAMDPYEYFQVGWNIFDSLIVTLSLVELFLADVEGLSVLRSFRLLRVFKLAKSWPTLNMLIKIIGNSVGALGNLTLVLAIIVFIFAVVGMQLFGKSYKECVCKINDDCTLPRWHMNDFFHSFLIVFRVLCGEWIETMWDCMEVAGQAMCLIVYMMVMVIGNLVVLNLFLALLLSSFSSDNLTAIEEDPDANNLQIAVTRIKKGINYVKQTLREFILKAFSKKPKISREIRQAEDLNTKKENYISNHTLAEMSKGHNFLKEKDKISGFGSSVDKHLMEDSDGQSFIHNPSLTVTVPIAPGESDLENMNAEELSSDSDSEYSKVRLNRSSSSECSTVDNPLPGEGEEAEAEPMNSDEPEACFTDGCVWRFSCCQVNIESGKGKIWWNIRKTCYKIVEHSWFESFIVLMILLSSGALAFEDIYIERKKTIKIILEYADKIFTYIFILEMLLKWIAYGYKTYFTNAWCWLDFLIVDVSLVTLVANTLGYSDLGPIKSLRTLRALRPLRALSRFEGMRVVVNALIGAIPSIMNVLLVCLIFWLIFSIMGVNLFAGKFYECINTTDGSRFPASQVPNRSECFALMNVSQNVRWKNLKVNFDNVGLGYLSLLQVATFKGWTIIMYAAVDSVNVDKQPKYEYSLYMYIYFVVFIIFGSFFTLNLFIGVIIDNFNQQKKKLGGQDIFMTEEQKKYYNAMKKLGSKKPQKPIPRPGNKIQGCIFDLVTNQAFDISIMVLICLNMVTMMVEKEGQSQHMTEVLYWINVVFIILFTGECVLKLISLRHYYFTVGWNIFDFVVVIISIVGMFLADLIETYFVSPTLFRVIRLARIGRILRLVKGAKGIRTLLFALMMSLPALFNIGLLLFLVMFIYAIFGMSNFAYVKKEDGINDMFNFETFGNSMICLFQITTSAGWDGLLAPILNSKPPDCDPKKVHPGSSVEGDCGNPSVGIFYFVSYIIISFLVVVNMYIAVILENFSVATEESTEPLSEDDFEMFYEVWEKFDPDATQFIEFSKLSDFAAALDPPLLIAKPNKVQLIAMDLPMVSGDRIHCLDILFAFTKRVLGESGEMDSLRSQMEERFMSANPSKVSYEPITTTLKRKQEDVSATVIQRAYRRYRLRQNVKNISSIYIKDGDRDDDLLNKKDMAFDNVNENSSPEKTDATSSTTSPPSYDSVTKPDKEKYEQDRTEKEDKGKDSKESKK
structure (smiles),measurement,setting,value
COC(=O)[C@@H](NC(=O)[C@H](CCC(=O)OC(C)(C)C)NC(=O)[C@H](CC(C)C)NC(=O)[C@@H]1CCCN1C(=O)OCc1ccccc1)C(C)C [PW164] (Cbz-PLE(OtBu)V-OMe),"use dependency, normalized INa amplitude, Mean","FGF13-GFP + PW164, Pulse 1",1
same,"use dependency, normalized INa amplitude, Mean","FGF13-GFP + PW164, Pulse 3",0.7166
same,"use dependency, normalized INa amplitude, Mean","FGF13-GFP + PW164, Pulse 6",0.6629
same,"use dependency, normalized INa amplitude, Mean","FGF13-GFP + PW164, Pulse 10",0.6585
same,"use dependency, normalized INa amplitude, Mean","FGF13-GFP + PW164, Pulse 15",0.6477
same,"use dependency, normalized INa amplitude, Mean","FGF13-GFP + PW164, Pulse 20",0.6421
same,"use dependency, normalized INa amplitude, Mean","GFP + PW164, Pulse 1",1
same,"use dependency, normalized INa amplitude, Mean","GFP + PW164, Pulse 3",0.9017
same,"use dependency, normalized INa amplitude, Mean","GFP + PW164, Pulse 6",0.9079
same,"use dependency, normalized INa amplitude, Mean","GFP + PW164, Pulse 10",0.9071
same,"use dependency, normalized INa amplitude, Mean","GFP + PW164, Pulse 15",0.9039
same,"use dependency, normalized INa amplitude, Mean","GFP + PW164, Pulse 20",0.8633
same,"long-term inactivation, Mean","FGF13-GFP + PW164, Pulse 1",100
same,"long-term inactivation, Mean","FGF13-GFP + PW164, Pulse 2",69.7175
same,"long-term inactivation, Mean","FGF13-GFP + PW164, Pulse 3",60.3266
same,"long-term inactivation, Mean","FGF13-GFP + PW164, Pulse 4",59.3421
same,"long-term inactivation, Mean","GFP + PW164, Pulse 1",100
same,"long-term inactivation, Mean","GFP + PW164, Pulse 2",67.9412
same,"long-term inactivation, Mean","GFP + PW164, Pulse 3",62.3462
same,"long-term inactivation, Mean","GFP + PW164, Pulse 4",60.9288
same,"Nav1.7 repriming time course, Mean","Nav1.7 + FGF13-GFP, Time (ms) 2",-1.745
same,"Nav1.7 repriming time course, Mean","Nav1.7 + FGF13-GFP, Time (ms) 5",-3.217
same,"Nav1.7 repriming time course, Mean","Nav1.7 + FGF13-GFP, Time (ms) 9",-6.791
same,"Nav1.7 repriming time course, Mean","Nav1.7 + FGF13-GFP, Time (ms) 17",-10.2331
same,"Nav1.7 repriming time course, Mean","Nav1.7 + FGF13-GFP, Time (ms) 33",-13.6908
same,"Nav1.7 repriming time course, Mean","Nav1.7 + FGF13-GFP, Time (ms) 65",-18.7676
same,"Nav1.7 repriming time course, Mean","Nav1.7 + FGF13-GFP, Time (ms) 129",-22.4288
same,"Nav1.7 repriming time course, Mean","Nav1.7 + FGF13-GFP, Time (ms) 257",-26.5719
same,"Nav1.7 repriming time course, Mean","Nav1.7 + FGF13-GFP, Time (ms) 513",-28.3171
same,"Nav1.7 repriming time course, Mean","Nav1.7 + FGF13-GFP, Time (ms) 1025",-29.4614
same,"Nav1.7 repriming time course, Mean","Nav1.7 + FGF13-GFP, Time (ms) 2000",-30.5045
same,"Nav1.7 repriming time course, Mean","Nav1.7 + GFP, Time (ms) 2",-0.8155
same,"Nav1.7 repriming time course, Mean","Nav1.7 + GFP, Time (ms) 5",-1.631
same,"Nav1.7 repriming time course, Mean","Nav1.7 + GFP, Time (ms) 9",-4.0928
same,"Nav1.7 repriming time course, Mean","Nav1.7 + GFP, Time (ms) 17",-9.754
same,"Nav1.7 repriming time course, Mean","Nav1.7 + GFP, Time (ms) 33",-14.6809
same,"Nav1.7 repriming time course, Mean","Nav1.7 + GFP, Time (ms) 65",-21.498
same,"Nav1.7 repriming time course, Mean","Nav1.7 + GFP, Time (ms) 129",-26.6853
same,"Nav1.7 repriming time course, Mean","Nav1.7 + GFP, Time (ms) 257",-32.6576
same,"Nav1.7 repriming time course, Mean","Nav1.7 + GFP, Time (ms) 513",-33.7798
same,"Nav1.7 repriming time course, Mean","Nav1.7 + GFP, Time (ms) 1025",-35.5926
same,"Nav1.7 repriming time course, Mean","Nav1.7 + GFP, Time (ms) 2000",-36.9364
same,"Time constant of repriming, Mean","Nav1.7 + FGF13-GFP, recovery potential -60",51.44 ms
same,"Time constant of repriming, Mean","Nav1.7 + FGF13-GFP, recovery potential -70",60.77 ms
same,"Time constant of repriming, Mean","Nav1.7 + FGF13-GFP, recovery potential -80",68.88 ms
same,"Time constant of repriming, Mean","Nav1.7 + FGF13-GFP, recovery potential -90",64.58 ms
